# Measured values taken from patent US20240239752A1, “BICYCLIC HETEROAROMATIC INHIBITORS OF KLK5” (BioCryst Pharmaceuticals, Inc., priority 2021, published 2024).
# Target: T1, recombinant human KLK5 (Homo sapiens, UniProt Q9Y337)
# T1 construct: purchased Novoprotein or R&D Systems C415 or 1108-SE
# T1 sequence (Q9Y337 23-293): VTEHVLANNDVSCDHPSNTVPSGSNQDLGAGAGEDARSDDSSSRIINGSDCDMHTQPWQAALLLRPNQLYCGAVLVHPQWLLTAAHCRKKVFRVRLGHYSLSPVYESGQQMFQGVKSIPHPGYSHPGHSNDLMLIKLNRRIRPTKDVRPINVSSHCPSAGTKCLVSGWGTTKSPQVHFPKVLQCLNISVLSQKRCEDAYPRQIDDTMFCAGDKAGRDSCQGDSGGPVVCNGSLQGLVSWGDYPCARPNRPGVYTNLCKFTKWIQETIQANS
# Test: Kallikrein (KLK) 5 enzymatic assay (Boc-VPR-AMC fluorogenic substrate)
# Assay type: biochemical
# Conditions: recombinant human KLK5 0.1 μg/well, Boc-VPR-AMC 100 μM, pH 7.5, room temperature, 1% DMSO; tested a minimum of three times
# Procedure, shortened: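 Recombinant human KLK5 (0.1 μg/well) was preincubated with compound at room temperature in 0.1 M NaH2PO4, pH 7.5, 1% DMSO, then started with 100 μM Boc-VPR-AMC. The rate was followed at 380/460 nm, and IC50 came from percent inhibition relative to enzyme alone, with at least three runs.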
row,SMILES,IC50
1,"CCn1nc(COc2ccccc2CC(=O)O)c2cc(-c3cccc4c(N)nccc34)ccc21 [Compound 178f, 2-(2-((5-(1-aminoisoquinolin-5-yl)-1-ethyl-1H-indazol-3-yl)methoxy)phenyl)acetic acid]",< 1000 nM
2,"CCn1nc(COc2ccccc2CC(=O)O)c2cc(-c3ccc4ccnc(N)c4c3)ccc21 [Compound 179b, 2-(2-((5-(1-aminoisoquinolin-7-yl)-1-ethyl-1H-indazol-3-yl)methoxy)phenyl)acetic acid]",< 1000 nM
3,"CCc1cccc(OCc2nn(C3CCC3)c3ccc(-c4ccc5ccnc(N)c5c4)cc23)c1CC(=O)O [Compound 180g, 2-(2-((5-(1-aminoisoquinolin-7-yl)-1-cyclobutyl-1H-indazol-3-yl)methoxy)-6-ethylphenyl)acetic acid]",1000 to 10000 nM
4,"CCc1cccc(OCc2nn(C3CCC3)c3ccc(-c4cccc5c(N)nccc45)cc23)c1CC(=O)O [Compound 181b, 2-(2-((5-(1-aminoisoquinolin-5-yl)-1-cyclobutyl-1H-indazol-3-yl)methoxy)-6-ethylphenyl)acetic acid]",< 1000 nM
5,"CCOC(=O)Cc1ccccc1OCc1nn(CCF)c2ccc(Br)cc12 [Compound 182c, ethyl 2-(2-((5-bromo-1-(2-fluoroethyl)-1H-indazol-3-yl)methoxy)phenyl)acetate]",< 1000 nM
6,"Nc1nccc2c(-c3ccc4c(c3)c(COc3ccccc3CC(=O)O)nn4CCF)cccc12 [Compound 183b, 2-(2-((5-(1-aminoisoquinolin-5-yl)-1-(2-fluoroethyl)-1H-indazol-3-yl)methoxy)phenyl)acetic acid]",< 1000 nM
7,"CCCCn1nc(COc2ccccc2CC(=O)O)c2cc(-c3ccc4ccnc(N)c4c3)ccc21 [Compound 184e, 2-(2-((5-(1-aminoisoquinolin-7-yl)-1-butyl-1H-indazol-3-yl)methoxy)phenyl)acetic acid]",< 1000 nM
8,"CCCCn1nc(COc2ccccc2CC(=O)O)c2cc(-c3cccc4c(N)nccc34)ccc21 [Compound 185b, 2-(2-((5-(1-aminoisoquinolin-5-yl)-1-butyl-1H-indazol-3-yl)methoxy)phenyl)acetic acid]",< 1000 nM
9,"CCCn1nc(COc2ccccc2CC(=O)O)c2cc(-c3ccc4ccnc(N)c4c3)ccc21 [Compound 186e, 2-(2-((5-(1-aminoisoquinolin-7-yl)-1-propyl-1H-indazol-3-yl)methoxy)phenyl)acetic acid]",< 1000 nM
10,"CCCn1nc(COc2ccccc2CC(=O)O)c2cc(-c3cccc4c(N)nccc34)ccc21 [Compound 187b, 2-(2-((5-(1-aminoisoquinolin-5-yl)-1-propyl-1H-indazol-3-yl)methoxy)phenyl)acetic acid]",< 1000 nM
11,"CC(C)Cn1nc(COc2ccccc2CC(=O)O)c2cc(-c3ccc4ccnc(N)c4c3)ccc21 [Compound 188e, 2-(2-((5-(1-aminoisoquinolin-7-yl)-1-isobutyl-1H-indazol-3-yl)methoxy)phenyl)acetic acid]",< 1000 nM
12,"CC(C)Cn1nc(COc2ccccc2CC(=O)O)c2cc(-c3cccc4c(N)nccc34)ccc21 [Compound 189b, 2-(2-((5-(1-aminoisoquinolin-5-yl)-1-isobutyl-1H-indazol-3-yl)methoxy)phenyl)acetic acid]",< 1000 nM
13,"CC[C@@H](C)n1nc(COc2ccccc2CC(=O)O)c2cc(-c3ccc4ccnc(N)c4c3)ccc21 [Compound 190e, (R)-2-(2-((5-(1-aminoisoquinolin-7-yl)-1-(sec-butyl)-1H-indazol-3-yl)methoxy)phenyl)acetic acid]",< 1000 nM
14,"CC[C@@H](C)n1nc(COc2ccccc2CC(=O)O)c2cc(-c3cccc4c(N)nccc34)ccc21 [Compound 191b, (R)-2-(2-((5-(1-aminoisoquinolin-5-yl)-1-(sec-butyl)-1H-indazol-3-yl)methoxy)phenyl)acetic acid]",< 1000 nM
15,"CC[C@H](C)n1nc(COc2ccccc2CC(=O)O)c2cc(-c3ccc4ccnc(N)c4c3)ccc21 [Compound 192e, (S)-2-(2-((5-(1-aminoisoquinolin-7-yl)-1-(sec-butyl)-1H-indazol-3-yl)methoxy)phenyl)acetic acid]",< 1000 nM
16,"CC[C@H](C)n1nc(COc2ccccc2CC(=O)O)c2cc(-c3cccc4c(N)nccc34)ccc21 [Compound 193b, (S)-2-(2-((5-(1-aminoisoquinolin-5-yl)-1-(sec-butyl)-1H-indazol-3-yl)methoxy)phenyl)acetic acid]",< 1000 nM
17,"CC(C)(C)OC(=O)N1CC(Cn2nc(COc3ccccc3CC(=O)O)c3cc(-c4ccc5ccnc(N)c5c4)ccc32)C1 [Compound 194g, 2-(2-((5-(1-aminoisoquinolin-7-yl)-1-((1-(tert-butoxycarbonyl)azetidin-3-yl)methyl)-1H-indazol-3-yl)methoxy)phenyl)acetic acid]",< 1000 nM

row,SMILES,IC50
1,"CC(C)(C)OC(=O)N1CC(Cn2nc(COc3ccccc3CC(=O)O)c3cc(-c4cccc5c(N)nccc45)ccc32)C1 [Compound 195b, 2-(2-((5-(1-aminoisoquinolin-5-yl)-1-((1-(tert-butoxycarbonyl)azetidin-3-yl)methyl)-1H-indazol-3-yl)methoxy)phenyl)acetic acid]",< 1000 nM
2,"Cn1nc(COc2ccccc2CC(=O)O)c2cc(-c3ccc4ccnc(N)c4c3)cnc21 [Compound 196e, 2-(2-((5-(1-aminoisoquinolin-7-yl)-1-methyl-1H-pyrazolo[3,4-b]pyridin-3-yl)methoxy)phenyl)acetic acid]",< 1000 nM
3,"Nc1nccc2ccc(-c3cnc4c(c3)c(COc3ccccc3CC(=O)O)nn4C3CCC3)cc12 [Compound 197j, 2-(2-((5-(1-aminoisoquinolin-7-yl)-1-cyclobutyl-1H-pyrazolo[3,4-b]pyridin-3-yl)methoxy)phenyl)acetic acid]",< 1000 nM
4,"Nc1nccc2c(-c3cnc4c(c3)c(COc3ccccc3CC(=O)O)nn4C3CCC3)cccc12 [Compound 198b, 2-(2-((5-(1-aminoisoquinolin-5-yl)-1-cyclobutyl-1H-pyrazolo[3,4-b]pyridin-3-yl)methoxy)phenyl)acetic acid]",< 1000 nM
5,"Nc1nccc2ccc(-c3ccc4c(c3)C(Oc3ccccc3CC(=O)O)CC4)cc12 (stereo not shown) [Compound 199d, 2-(2-((6-(1-aminoisoquinolin-7-yl)-2,3-dihydro-1H-inden-1-yl)oxy)phenyl)acetic acid]",< 1000 nM
6,"Nc1nccc2c(-c3ccc4c(c3)C(Oc3ccccc3CC(=O)O)CC4)cccc12 (stereo not shown) [Compound 200b, 2-(2-((6-(1-aminoisoquinolin-5-yl)-2,3-dihydro-1H-inden-1-yl)oxy)phenyl)acetic acid]",< 1000 nM
7,"Nc1nccc2ccc(-c3ccc4c(c3)c(COc3ccccc3CC(=O)O)nn4-c3ccccc3)cc12 [Compound 201c, 2-(2-((5-(1-aminoisoquinolin-7-yl)-1-phenyl-1H-indazol-3-yl)methoxy)phenyl)acetic acid]",< 1000 nM
8,"Nc1nccc2c(-c3ccc4c(c3)c(COc3ccccc3CC(=O)O)nn4-c3ccccc3)cccc12 [Compound 202b, 2-(2-((5-(1-aminoisoquinolin-5-yl)-1-phenyl-1H-indazol-3-yl)methoxy)phenyl)acetic acid]",< 1000 nM
9,"N=C(N)c1cccc(-c2ccc3c(c2)c(COc2ccccc2CC(=O)O)nn3-c2ccccc2)c1 [Compound 203c, 2-(2-((5-(3-carbamimidoylphenyl)-1-phenyl-1H-indazol-3-yl)methoxy)phenyl)acetic acid]",< 1000 nM
10,"Nc1nccc2ccc(-c3ccc4c(c3)C(Oc3ccccc3CC(=O)O)CCC4)cc12 (stereo not shown) [Compound 204d, 2-(2-((7-(1-aminoisoquinolin-7-yl)-1,2,3,4-tetrahydronaphthalen-1-yl)oxy)phenyl)acetic acid]",1000 to 10000 nM
11,"Cc1cc(-c2ccc3ccnc(N)c3c2)cc2c1CCC2Oc1ccccc1CC(=O)O (stereo not shown) [Compound 205e, 2-(2-((6-(1-aminoisoquinolin-7-yl)-4-methyl-2,3-dihydro-1H-inden-1-yl)oxy)phenyl)acetic acid]",1000 to 10000 nM
12,"Cc1cc(-c2cccc3c(N)nccc23)cc2c1CCC2Oc1ccccc1CC(=O)O (stereo not shown) [Compound 206b, 2-(2-((6-(1-aminoisoquinolin-5-yl)-4-methyl-2,3-dihydro-1H-inden-1-yl)oxy)phenyl)acetic acid]",< 1000 nM
13,"Nc1nccc2ccc(-c3cc(F)c4c(c3)C(Oc3ccccc3CC(=O)O)CC4)cc12 (stereo not shown) [Compound 207e, 2-(2-((6-(1-aminoisoquinolin-7-yl)-4-fluoro-2,3-dihydro-1H-inden-1-yl)oxy)phenyl)acetic acid]",< 1000 nM
14,"Nc1nccc2c(-c3cc(F)c4c(c3)C(Oc3ccccc3CC(=O)O)CC4)cccc12 (stereo not shown) [Compound 208b, 2-(2-((6-(1-aminoisoquinolin-5-yl)-4-fluoro-2,3-dihydro-1H-inden-1-yl)oxy)phenyl)acetic acid]",< 1000 nM
15,"Nc1nccc2ccc(-c3ccc4c(c3)C(Oc3ccccc3CC(=O)O)c3ccccc3-4)cc12 (stereo not shown) [Compound 209e, 2-(2-((2-(1-aminoisoquinolin-7-yl)-9H-fluoren-9-yl)oxy)phenyl)acetic acid]",< 1000 nM
16,"Nc1nccc2c(-c3ccc4c(c3)C(Oc3ccccc3CC(=O)O)c3ccccc3-4)cccc12 (stereo not shown) [Compound 210b, 2-(2-((2-(1-aminoisoquinolin-5-yl)-9H-fluoren-9-yl)oxy)phenyl)acetic acid]",< 1000 nM
17,"COc1ccc(-c2ccc3c(c2)c(COc2ccccc2CC(=O)O)nn3C(C)C)cc1C(=N)N [Compound 211e, 2-(2-((5-(3-carbamimidoyl-4-methoxyphenyl)-1-isopropyl-1H-indazol-3-yl)methoxy)phenyl)acetic acid]",1000 to 10000 nM
